Experimental data reported in US7455996B2, “Soybean raffinose synthase and a method for producing raffinose” (priority 1996, dated 2008).

B1: raffinose synthase: raffinose synthase purified from cucumber leaf vein tissues, amino acid sequence SEQ ID NO: 5 (protein, listed as Cucumis sativus)
chain: MAPSFKNGGSNVVSFDGLNDMSSPFAIDGSDFTVNGHSFLSDVPENIVASPSPYTSIDKSPVSVGCFVGFDASEPDSRHVVSIGKLKDIRFMSIFRFKVWWTTHWVGRNGGDLESETQIVILEKSDSGRPYVFLLPIVEGPFRTSIQPGDDDFVDVCVESGSSKVVDASFRSMLYLHAGDDPFALVKEAMKIVRTHLGTFRLLEEKTPPGIVDKFGWCTWDAFYLTVHPQGVIEGVRHLVDGGCPPGLVLIDDGWQSIGHDSDPITKEGMNQTVAGEQMPCRLLKFQENYKFRDYVNPKATGPRAGQKGMKAFIDELKGEFKTVEHVYVWHALCGYWGGLRPQVPGLPEARVIQPVLSPGLQMTMEDLAVDKIVLHKVGLVPPEKAEEMYEGLHAHLEKVGIDGVKIDVIHLLEMLCEDYGGRVDLAKAYYKAMTKSINKHFKGNGVIASMEHCNDFMFLGTEAISLGRVGDDFWCTDPSGDPNGTFWLQGCHMVHCANDSLWMGNFIHPDWDMFQSTHPCAAFHAASRAISGGPIYVSDSVGKHNFDLLKKLVLPDGSILRSEYYALPTRDCLFEDPLHNGETMLKIWNLNKFTGVIGAFNCQGGGWCRETRRNQCFSQYSKRVTSKTNPKDIEWHSGENPISIEGVKTFALYLYQAKKLILSKPSQDLDIALDPFEFELITVSPVTKLIQTSLHFAPIGLVNMLNTSGAIQSVDYDDDLSSVEIGVKGCGEMRVFASKKPRACRIDGEDVGFKYDQDQMVVVQVPWPIDSSSGGISVIEYLF

Assays:
raffinose synthase [1] = assay: raffinose synthase activity with enzyme inhibitors or metal ions added; type: biochemical, cucumber; details: final concentration of 1 mM; for Remaining activity (%): with respect to activity when neither inhibitor nor metal ion was added
Method: (§1) The activity of the raffinose synthase was measured by quantitatively determining raffinose produced by the raffinose synthesis reaction by using HPLC (high-performance liquid chromatography). HPLC was performed by using Sugar Analysis System DX500 (CarboPac PA1column, pulsed amperometry detector (produced by DIONEX)).
(§2) For the raffinose synthesis reaction, to a reaction solution prepared to have a composition having the following final concentrations, 10 to 50 μl of a raffinose synthase solution was added to give a volume of 100 μl followed by performing the reaction at 32° C. for 60 minutes.
(§3) After performing the reaction as described above, the reaction was stopped by adding to the reaction solution, ethanol in a volume four times the volume of the reaction solution and heating the solution at 95° C. for 30 seconds. The obtained solution was centrifuged to obtain a supernatant and the supernatant was then dried up under a reduced pressure. After that, an obtained residue was dissolved in distilled water. Raffinose in the reaction product was quantitatively determined by using the sugar analysis system to estimate the raffinose synthase activity.
Various enzyme inhibitors or metal ions were added to the reaction solution of the purified raffinose synthase to give a final concentration of 1 mM respectively, and the raffinose synthase activity was measured in the same manner as described above.

raffinose synthase [2] = assay: inhibition of raffinose synthase activity by myo-inositol; type: biochemical, cucumber; details: myo-inositol added at various concentrations (FIG. 5)
Method: as §1, §2, §3
Investigation was made for inhibition by myo-inositol as the reaction product of the raffinose synthesis reaction. To the reaction solution, myo-inositol was added at various concentrations, and the raffinose synthase activity was measured. […]

[3] = raffinose synthase activity of purification fractions (HPLC determination of raffinose); type: biochemical, cucumber; details: purified active fraction after hydroxyapatite rechromatography
Method: as §1, §2, §3
The amount of protein contained in the active fraction was about 200 μg. The total activity was 5700 nmol/hour, and the specific activity per protein was about 28 μmol/hour/mg. […]

[4] = optimum reaction temperature of raffinose synthase; type: biochemical, cucumber; details: measured at 28 to 52° C.
Method: as §1, §2, §3
The raffinose synthase activity was measured under various temperature conditions (28° C., 32° C., 36° C., 40° C., 44° C., 48° C., and 52° C.) in accordance with the method for measuring the raffinose synthase activity described above. […]

[5] = optimum reaction pH of raffinose synthase; type: biochemical, cucumber; details: pH 4 to 11, various buffers
Method: as §1, §2, §3
The raffinose synthase activity was measured under various pH conditions (pH 4 to 11) in accordance with the method for measuring the raffinose synthase activity described above. […]

[6] = stable pH of raffinose synthase; type: physicochemical, cucumber; details: fraction from anion exchange chromatography (2); incubated 4 hours at 4° C.
Method: The raffinose synthase fraction obtained by the anion exchange chromatography (2) described above was incubated for 4 hours at 4° C. in 50 mM Bis-Tris-HCl buffer (pH 5 to 8.0, containing 0.5 mM DTT) or 20 mM Tris-HCl buffer (pH 7 to 8.0, containing 0.5 mM DTT), and then the raffinose synthase activity was measured. […] The raffinose synthase activity was confirmed after the incubation under any of the incubation conditions. Especially, the enzyme was stable in a range of pH 5 to 7.5.

[7] = stable temperature of raffinose synthase; type: physicochemical, cucumber; details: fraction from anion exchange chromatography (2); 60 minutes at 28° C. to 40° C., pH 7
Method: The raffinose synthase fraction obtained by the anion exchange chromatography (2) described above was incubated in 20 mM Tris-HCl buffer (pH 7, containing 0.5 mM DTT) for 60 minutes at 28° C., 32° C., 37° C., or 40° C., and then the raffinose synthase activity was measured.

Molecule | inhibiting effect on the enzyme activity (raffinose synthase [1]) | Remaining activity (%) (raffinose synthase [1]) | other results
CCN1C(=O)C=CC1=O [N-ethylmaleimide] | remarkably inhibited | 40 | –
[Cl-].[Cl-].[Mg+2] [MgCl2] | scarcely observed | 96 | –
[Ca+2].[Cl-].[Cl-] [CaCl2] | scarcely observed | 115 | –
[Cl][Ni][Cl] [NiCl2] | exhibited the inhibiting effect | 68 | –
NC(=O)CI [Iodoacetoamide, Iodoacetamide] | remarkably inhibited | 0 | –
O[C@H]1[C@H](O)[C@@H](O)[C@H](O)[C@@H](O)[C@H]1O [myo-inositol] | – | – | inhibition of the enzyme activity by myo-inositol (raffinose synthase [2]): inhibited
[Cl][Mn][Cl] [MnCl2] | exhibited the inhibiting effect | 32 | –
[Cl][Cu][Cl] [CuCl2] | scarcely observed | 101 | –
[Cl-].[Cl-].[Zn+2] [ZnCl2] | exhibited the inhibiting effect | 42 | –
B1 | – | – | specific activity per protein [3]: about 28 μmol/hour/mg; optimum reaction temperature [4]: 35 to 40 °C; temperature range in which activity was exhibited [4]: 25 to 42 °C; optimum reaction pH [5]: 6 to 8 pH; pH range in which activity was exhibited [5]: 5 to 10 pH; stable pH range [6]: 5 to 7.5 pH; activity after incubation relative to non-incubated control [7]: 80% to 100
